Experimental data as given in patent US7381428B2, “Stabilized lanthanum carbonate compositions” (Shire International Licensing B.V., priority 2003, dated 2008).

Tests used:
Assay type in all cases: physicochemical
[1] = Thermal and moisture stress study of lanthanum carbonate/excipient mixtures, decarboxylation to lanthanum hydroxycarbonate (HC) monitored by XRPD
Description: Excipient compatibility studies of hydrated lanthanum carbonate having a water content approximately equivalent to 4-5 moles of water and anhydrous lanthanum carbonate were performed to determine whether different classes of saccharide excipients would retard or prevent the appearance of decarboxylation products in thermally- and moisture-stressed solid lanthanum carbonate mixtures.
Conditions which would cause the formation of decarboxylation products in substantially pure hydrated lanthanum carbonate within one week were used. Mixtures of 1:1 or 96:4 (by weight) of hydrated lanthanum carbonate and a test excipient or 1:1 (by weight) anhydrous lanthanum carbonate and a test excipient were prepared and stressed, and samples were analyzed by XRPD (X-ray powder diffraction) as a function of exposure time.
Weighed samples of hydrated lanthanum carbonate/excipient (1:1 or 96:4 by weight) or anhydrous lanthanum carbonate/excipient (1:1 by weight) were sealed into scintillation vials and placed onto a Turbula mixer. Samples were mixed for ten minutes to ensure sample homogeneity.
Saturated salt solutions of Na2SO4.10H2O (˜95% RH (relative humidity)) or NaNO3 (65% RH) were prepared and placed into sealed chambers. The chambers were placed into a 60° C. oven overnight and the presence of solids was confirmed after 24 hours. These chambers were then subsequently used for the stressing studies of the various excipient/lanthanum carbonate mixtures. The lower humidity conditions were utilized for the D-sorbitol and dextrates excipients because they deliquesce under the more extreme conditions of 60° C./95% RH.
XRPD analyses were performed using a Shimadzu XRD-6000 X-ray powder diffractometer using Cu Kα radiation. […]
At the experimental onset, the hydrated lanthanum carbonate was stressed under two conditions, 60° C./95% RH and 60° C./65% RH, in order to establish a baseline for monitoring decarboxylation. Individual samples were pulled after 1, 2, 3, 4, and 7 days and immediately analyzed by XRPD. […]

[2] = Degradation to lanthanum hydroxycarbonate at room temperature / standard ambient conditions
[3] = Decarboxylation of hydrated lanthanum carbonate at standard ICH stability conditions, lanthanum hydroxycarbonate content by XRPD; conditions: 25° C./60% RH, 30° C./60% RH and 40° C./75% RH, up to 2 years
Description: Unformulated hydrated lanthanum carbonate and formulated hydrated lanthanum carbonate tablets containing approximately 50% (by weight) dextrates were exposed to the standard ICH stability conditions of 25° C./60% RH, 30° C./60% RH and 40° C./75% RH for a period up to 2 years. Samples were removed periodically over this time and tested for their lanthanum hydroxycarbonate content using x-ray powder diffraction.

time after which decarboxylation product HC was initially seen (XRPD) ([1]; 60° C./95% RH)	time within which degradation to lanthanum hydroxycarbonate occurs [2]	degradation (decarboxylation) to lanthanum hydroxycarbonate [3]	time after which decarboxylation product HC was initially seen (XRPD) ([1]; 60° C./65% RH)	Compound
1 days	9-12 months			O=C([O-])[O-].O=C([O-])[O-].O=C([O-])[O-].[La+3].[La+3] [substantially pure lanthanum carbonate, La2(CO3)3.xH2O]
one		significant degradation	single	hydrated lanthanum carbonate
